Data reported in patent US20240208898A1, “ENAMINE N-OXIDES: SYNTHESIS AND APPLICATION TO HYPOXIA-RESPONSIVE PRODRUGS AND IMAGING AGENTS” (DANA-FARBER CANCER INSTITUTE, INC., priority 2021, published 2024).

What was measured:
[1] = test system: BxPC-3 xenograft mouse model; experiment: Near infrared imaging in live mice; type: in vivo; settings: intraperitoneal 20 mg/kg
Protocol: All animal experiments were performed according to procedures and protocols approved by the Dana-Farber Cancer Institute Institutional Animal Care and Use Committee. Bx-PC3 cells were grown to confluency in antibiotic-free RPMI supplemented with 10% FBS, trypsinized, and washed three times with ice cold PBS (50 mL). Cells were resuspended in PBS at a concentration of 1.0×10^7 cells per 100 μL. 8-week old, female, homozygous NU/J mice (Jackson Laboratory) were subcutaneously injected with 1.0×10^7 Bx-PC3 cells over the right hind flank under isoflurane anesthesia. Experiments were performed when tumors reached 1000 mm^3 in size. Mice were intraperitoneally injected with a solution of Si700-enamine N-oxide probe 42 (20 mg/kg, 7.93 mM in 0.9% saline). Under isoflurane anesthesia, mice were then imaged with a Xenogen IVIS 100 fluorescence imager using an excitation of 675 nm and emission of 720 nm at various time points (0 hours (before treatment), 6 hours, 24 hours and 30 hours (after treatment)). Mice were then intraperitoneally injected with a solution of Si700-enamine N-oxide probe 42 (20 mg/kg, 7.93 mM in 0.9% saline) 30 hours post injection. After 16 hours, mice were intraperitoneally injected with a bolus of pimonidazole solution (200 μL, 25.8 mM pimonidazole in 0.9% saline). […]

[2] = test system: series of cancer cell lines; experiment: In-gel fluorescence labeling profile in a series of cancer cell lines; type: cell-based
Protocol: Cells were seeded at a density of 200,000 cells per well in media [2 mL, RPMI (A431, H460, HeLa, Bx-PC3, MDA-MB-231) or DMEM (U251) supplemented with 5% heat-inactivated human serum (Sigma), penicillin (100 units/mL), and streptomycin (0.1 mg/mL)] in 6-well plates. Cells were incubated at 37° C. under ambient atmosphere with 5% CO2. After 24 h, the media was aspirated and replaced with fresh media [1 mL, RPMI (A431, H460, HeLa, Bx-PC3, MDA-MB-231) or DMEM (U251) supplemented with 5% heat-inactivated human serum, penicillin (100 units/mL), and streptomycin (0.1 mg/mL)] containing enamine N-oxide probe (200 mM in ethanol; 10 μM final concentration). Plates were then incubated at 37° C. under ambient (20% pO2) or various oxygenated conditions (5%, 1%, or 0.1% pO2) with 5% CO2. […] The protein concentration was determined by BCA assay following the manufacturer's protocol (Pierce). […] The dried pellet was then resuspended in an SDS solution (50 μL, 1% SDS in 50 mM Tris, pH 8.0), and the protein concentration was determined by BCA assay. […] In-gel fluorescence was visualized by a laser scanner (Typhoon™ FLA 9500, GE) and quantified using ImageJ software. […] Detection was mediated by an anti-rabbit IR680-dye conjugated secondary antibody (LI-COR Biosciences, 925-68071) and imaged using a fluorescence scanner (Odyssey CLx, LI-COR Biosciences).

C#CCN(CCCCCC(F)/C=C/[N+]([O-])(CC)CC)C(=O)c1ccc(C2=c3cc4c(cc3[Si](C)(C)c3cc5c(cc32)CCN5C)=[N+](C)CC4)c(C)c1 (centres unmarked) [probe 42, Si700-enamine N-oxide]
near-infrared fluorescence imaging: accumulation in the tumor [1]: preferential accumulation of enamine N-oxide probe 42 in the tumor

C#CCCCCC(F)/C=C/[N+]([O-])(CC)CC (centres unmarked) [probe 39, (E)-N,N-diethyl-3-fluoronon-1-en-8-yn-1-amine oxide]
labeling profile (hypoxic vs normoxic) [2]: hypoxia selectivity
